Like-named read-outs stand apart in the source and are kept apart here. Square brackets hold non-standard residues; d marks the D form. Ends that are not written are not given here. NMeL = CN[C@@H](CC(C)C)C(=O)O
How the values were obtained:
E. coli strain DHSα = assay: Direct killing of bacteria, OD600 growth curves; assay type: cell-based; details: for effect on log phase growth (OD600): added at OD600 0.2, 500 μg/m, LB or TSB
Protocol: E. coli strain DHSα was grown overnight in Lennox Broth (LB). This culture was diluted to an optical density at […] (OD600) of 0.06. The diluted E. coli was dispensed in 1.5 ml aliquots into separate tubes and 1.5 ml of EP67 ([…] ID NO: 4)), EP54 ([…] NO: 3)), scrambled-EP67 (s-EP67) or scrambled-EP54 in LB was added to obtain a final concentration of 500 μg/ml with the E. coli at an OD600 of 0.03. A culture in LB was also prepared. The cultures were incubated at 37° C. with shaking and the OD600 readings recorded hourly. In order to determine whether the growth media altered the effectiveness of EP67, LB was replaced with an alternative growth media, Tryptic Soy Broth (TSB). To test the efficacy of EP67 on bacteria growing in log phase, overnight cultures of DHSα were grown in either LB or TSB. […] DH5α control cultures (absence of additives) were also prepared. The tubes were further shaken at 37° C. and OD600 readings were taken hourly.

neutrophils = assay: Neutrophil chemotaxis and myeloperoxidase assay, histopathology of injection site; assay type: in vivo, CD1 mice; details: for histopathologic analysis of skin tissue: 250 μg s.c., no bacteria
Protocol: Neutrophil chemotaxis and myeloperoxidase assay. Neutrophil recruitment at the site of injection by EP67 or sEP67 was examined using an in vivo chemotaxis assay as described previously (van Sorge N M, et al., PLoS One 2008; 3:e2964). Briefly, 250 μg EP67 or sEP67 were injected subcutaneously into the right flank of CD1 mice. The injection was repeated after 24 h. Mice were euthanized 4 h after the second injection and the site of injection excised for histopathologic analysis or determination of myeloperoxidase (MPO) activity as described previously (van Sorge N M, et al., supra). The assay was carried out two times and the samples analyzed in duplicate.
Neutrophil influx is essential for the protective action of EP67. […] Neutrophil recruitment to the site of EP67 injection was further analyzed using an in vivo neutrophil recruitment assay as described previously (van Sorge N M, et al., supra; and Banerjee A, et al., Cell Microbiol; 12:1576-1588). Neutrophil migration was assessed in skin homogenates following injection of EP67 or sEP67 by determining the level of neutrophil enzyme myeloperoxidase (MPO), which serves as an effective indication of neutrophil infiltration (Banerjee A, et al., supra; and Bradley P P, et al., J Invest Dermatol 1982; 78:206-209). This method compares well with other in vivo assays of neutrophil chemotaxis (van Sorge N M, et al., supra).

BAL cells = details: infected with influenza A/PR/8 and simultaneously treated, one day later
Protocol: To test the robustness of the EP67 response, mice were treated at the time of influenza infection. Animals were sacrificed one day later for analysis of BAL cells as above.

[1] = system: anti-influenza antibodies; assay: ELISA for anti-influenza antibodies on serum; assay type: in vivo, mice; details: influenza-infected, EP67-treated groups
CA-MRSA strain USA300 = assay: Mouse model of MRSA dermonecrotic infection (lesion size, bacterial load); assay type: in vivo, Staphylococcus aureus
[2] = system: bronchoalveolar lavage (BAL) cells; assay: Insufflation of EP67 to the lungs, FACS analysis of BAL cells; assay type: in vivo, mice
Protocol: In short, EP67 (3 mg/kg) was delivered directly to the lungs of mice through insufflation (IN). Animals were sacrificed one day later. Lungs were lavaged with PBS to isolate the bronchoalveolar lavage (BAL) cells for staining and FACS analysis.

influenza A/A/PR/8 = assay type: in vivo; details: mice
[3] = system: IL-6, TNF-α, INF-γ and KC; assay: Measurement of cytokines in tissue homogenates by ELISA; assay type: in vivo, mice
Protocol: Measurement of cytokines. IL-6, TNF-α, INF-γ and KC inflammatory cytokines were measured in tissue homogenates as previously described using ELISA for IL-6, TNF-α, INF-γ (Morgan E L, et al., Vaccine; 28:8275-8279), or according to manufacturer's protocols (BD and R&D Systems) for KC. Samples were run in triplicate.
Proinflammatory cytokines are enhanced by EP67 treatment. The decrease in lesion size observed in EP67-treated animals indicated an enhanced immune activation in these animals. In order to determine the nature of the immune response activated by EP67 treatment, skin lesions were harvested 48 h post-infection and EP67 or sEP67 treatment, and subjected to ELISA to measure proinflammatory cytokines in tissue homogenates.

[4] = system: S. aureus (USA300 LAC strain) biofilm; assay: Catheter-associated biofilm bacterial burden; assay type: in vivo; details: C57BL/6 mice, Day 3, relative to sEP67 and PBS vehicle
Protocol: A S. aureus (USA300 LAC strain) biofilm was established on a hollow catheter (1 cm in length) inserted subcutaneously into C57BL/6 mice by introducing 1000 CFUs of S. aureus into the catheter lumen. At the time of infection, one dose of EP67 (200 μg/ml dissolved in PBS) was introduced. At both 24 and 48 h following infection, a series of four injections of EP67 were made; two into each open end of the catheter (20 μl each) and two along the top and bottom at points perpendicular to the middle of the catheter (50 μl each). Samples of the biofilm and surrounding tissue were obtained at Day 3 and assessed for the presence of viable bacteria by standard culture methods.

[5] = system: S. aureus (Newman strain); assay: S. aureus in vitro EP67 killing curves; assay type: cell-based; details: dilution series, LB
Protocol: 150 μl of LB growth medium plus 50 μl of EP67 or s-EP67 were added to individual culture wells resulting in a dilution series of 6 wells per EP67 or s-EP67. A “no EP67” well (control) was included at the end of each series. S. aureus (Newman strain) was allowed to grow to an OD600 of 0.4 and each well of the dilution series was inoculated with 5 μl of the culture. Two wells with no bacterial inoculums were included to serve as controls. Plates were incubated at 37° C. with agitation and the OD600 of each well was measured hourly using a plate reader.

GBS = assay: Group B Streptococcus (GBS) meningitis model; assay type: in vivo; details: CD1 mice, 250 μg i.p. at day −1, 0, 1 and 2, 96 hours post-injection
Protocol: 8-week-old female CD1 mice were treated with 250 μg of EP67 or s-EP67 at day −1, 0, 1 and 2 via i.p. injection. GBS was injected i.p. at 1×10^9 cfu/mouse. Brains and blood were harvested from each mouse 96 hours post-injection. The tissue was homogenized, diluted and plated to determine the cfu/g bacteria.

exMAcs and neutrophils = details: aged lung
Text: Since the aged mouse is considered a strong model for age-related changes in human immunity, the response of aged mice to EP67 insufflation was examined.

MUC1 epitope = assay: Immunization with MUC1/C5a agonist peptides, serum antibody responses (RIA, ELISA); assay type: in vivo; details: 100 μg i.p. with RIBI adjuvant, three immunizations, Balb/c and C57B16 mice
Text: Animal Models. The strains of mice used in the studies described in this Example were inbred 6- to 12-week-old C57B16(H-2b) and Balb/c ([…]) females obtained from Jackson Labs (Bar Harbor, Me.). […] The MUC1 peptide selected for these studies contained a motif that may bind to the H-2Kb molecule of the C57B16 mice. Therefore, a strain of mouse that lacked this class I molecule-binding motif (Balb/c) was also studied to determine the relative contribution of the class I-binding motif to the antigen presentation properties of these peptides.
Immunization Protocol. Preimmune sera were obtained from mice, which were subsequently immunized intraperitoneally with 100 μg of the indicated peptide with RIBI adjuvant (MPL+TDM+CWS) (Sigma Immunochemicals). Animals were boosted twice at two-week intervals using the same injection procedure. Sera were obtained following three immunizations (at 6 weeks).
Analysis of Serum Antibody Responses. For radioimmunoassay (RIA), anti-peptide antibodies were determined, before and at different time points after immunization, in 96-well microtiter plates (Dynatech Laboratories, Inc.). Plates were coated with 50 μl of a 100 μg/ml appropriate peptide in phosphate-buffered saline (PBS) pH 7.4 solution overnight at 4° C. The wells were blocked by incubation with 5% dry milk in PBS pH 7.4 for at least two hours. Anti-peptide antibody titers were determined using serial dilutions of sera. […] After washing, specific radioactivity was recorded in a gamma counter (1272 CliniGamma, LKB).
Anti-peptide antibody isotype titers were determined by enzyme-linked immunosorbent assay (ELISA) carried out in 96-well microtiter plates. […] Anti-peptide titers were determined using serial dilutions of sera. […] Again, the plates were washed 4 times with washing buffer and bound enzyme was detected by the addition of 50 μl 1 mg/ml p-nitrophenyl phosphate (Sigma) in 10% diethanolamine (Sigma) pH 9.4. The reaction was stopped by the addition of 50 μl of 0.5 M sodium hydroxide and absorbance values (A405) were determined using Titertek Multiskan (Flow Laboratories, Irvine, Scotland). […]

[6] = EP67 3 mg/kg insufflation, one day later
[7] = 48 h post-infection, compared to sEP67

Substance: (MeL)RMYKPaFDS [sEP67, reference compound]
- effect on log phase growth (OD600) (E. coli strain DHSα): little or no effect on growth
- histopathologic analysis of skin tissue (neutrophils): normal pathology

Substance: Tyr-Ser-Phe-Lys-Asp-Met-Pro-MeL-(D-Ala)-Arg (YSFKDMP[NMeL][dA]R; listed as Homo sapiens) [EP67]
- BAL exMAcs and neutrophils (BAL cells): showed a similar increase in BAL exMAcs and neutrophils to the uninfected animals treated with EP67
- anti-influenza Abs in serum [1]: a high concentration of anti-influenza Abs was found in each group
- cutaneous lesion size (CA-MRSA strain USA300; CD1 mice, 250 μg s.c., 48 h post-bacterial inoculation, compared to sEP67): significantly reduced
- bacterial load (CFU) within lesions (CA-MRSA strain USA300; CD1 mice, 5 days post-inoculation, compared to sEP67 or PBS): significant reduction in bacterial load
- lesion size (CA-MRSA strain USA300; CD88−/− mice, EP67 versus sEP67): no difference in lesion size
- lesion size (CA-MRSA strain USA300; CD-1 mice given isotype IgG control antibody, compared to sEP67): significant reduction in lesion size
- lesion size (CA-MRSA strain USA300; neutropenic CD-1 mice (RB6-8C5 monoclonal antibody), EP67 versus sEP67): no quantifiable difference in lesion size
- lesion size (CA-MRSA strain USA300; wild-type CD88+/+ C57Bl/6 mice, compared to sEP67): significantly smaller lesions
- CD11b+CD11c− cells (GR-1+ neutrophils) in the alveolar space [2, 6]: a large population of CD11b^+CD11c^− cells appeared in the alveolar space
- exudate macrophages (exMac) in BAL cells [2, 6]: appearance of cells bearing the CD11b^+CD11c^+ phenotype of exudate macrophages (exMac)
- dose dependence of EP67-induced changes in BAL populations ([2]; mouse, in vivo): displayed a strict dose-response
- time course of the EP67 response in BAL cells ([2]; seven days post EP67 administration): the neutrophils were largely lost
- influenza-induced weight loss (influenza A/A/PR/8; treated one day after infection): displayed significant protection from influenza-induced weight loss
- influenza-induced weight loss (influenza A/A/PR/8; treated the day before infection or the day of infection): lost significantly less weight than the non-treated animals
- effect on bacterial growth (OD600) (E. coli strain DHSα; 500 μg/ml, start OD600 0.03, LB or TSB): induces direct bacteriostatic/bacteriocidal effects
- effect on log phase growth (OD600) (E. coli strain DHSα): significantly reduce and/or stop log phase growth
- IL-6 level in skin lesion homogenate [3, 7]: Significantly higher levels
- murine KC level in skin lesion homogenate [3, 7]: Significantly higher levels
- INF-γ production ([3]; during MRSA infection): increase
- TNF-α production ([3]; during MRSA infection): increase
- bacterial burdens within the biofilm and surrounding tissue [4]: significant decrease in bacterial burdens within the biofilm and surrounding tissue
- effect on bacterial growth (OD600) [5]: dose dependent inhibitory effect
- protection against GBS infection (cfu/g in brain and blood) (GBS): protects against GBS infections in the central nervous system
- histopathologic analysis of skin tissue (neutrophils): massive influx of inflammatory cells, including neutrophils
- myeloperoxidase (MPO) level, accumulating neutrophils (neutrophils; skin homogenates, 250 μg s.c. twice, compared to sEP67): significantly higher
- exMAcs and neutrophils in the alveolar space (exMAcs and neutrophils): induces a large population of exMAcs and neutrophils into the alveolar space

Substance: Tyr-Ser-Phe-Lys-Pro-Met-Pro-Leu-(D-Ala)-Arg (YSFKPMPL[dA]R) [EP54, C5a C-terminal decapeptide agonist analog]
- antibody response to inoculation (MUC1 epitope): no appreciable increase in antibody response

Substance: YSFKPMPLaRKQGGFLGL (YSFKPMPL[dA]RKQGGFLGL; listed as Homo sapiens) [peptide 4]
- antibody response to inoculation (MUC1 epitope): immune responses were not produced
- antibody response to inoculation (MUC1 epitope; listed as MUC1 epitope conjugated to the C5a agonist peptide at its C-terminus): no appreciable increase in antibody response

Reference: patent publication US10945962B2, “Controlled-release peptide compositions and uses thereof” (BOARD OF REGENTS OF THE UNIVERSITY OF NEBRASKA, priority 2011, dated 2021)
